Source: PMC11187126, “Structure and dynamics of the pyroglutamylated RF-amide peptide QRFP receptor GPR103” (Nature Communications, 2024)
Like-named read-outs stand apart in the source and are kept apart here. No end group written: not given here.

Target: T1, GPR103 C285^6.47A (Homo sapiens, UniProt Q96P65, C285A)
T1 construct: we used human full-length QRFPR-encoding plasmids; expressed in transfected cells; host or cells: HEK293 cells (HEK293A in the flow cytometry section), pCAGGS vector
T1 sequence (Q96P65 1-431 C285A): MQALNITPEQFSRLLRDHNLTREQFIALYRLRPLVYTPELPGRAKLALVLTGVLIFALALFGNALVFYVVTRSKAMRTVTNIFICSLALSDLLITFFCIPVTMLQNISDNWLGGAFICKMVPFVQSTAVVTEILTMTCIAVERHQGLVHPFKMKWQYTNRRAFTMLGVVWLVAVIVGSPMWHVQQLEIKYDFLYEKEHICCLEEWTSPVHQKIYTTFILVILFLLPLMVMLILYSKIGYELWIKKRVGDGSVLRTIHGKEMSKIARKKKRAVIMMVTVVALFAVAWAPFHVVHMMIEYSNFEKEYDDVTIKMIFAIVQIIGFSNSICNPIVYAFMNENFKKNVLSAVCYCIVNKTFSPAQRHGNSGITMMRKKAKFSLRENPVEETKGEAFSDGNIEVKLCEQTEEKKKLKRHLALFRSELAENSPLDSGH
Test: TGFα shedding assay; Exp. level WT (1:20)
Format: cell-based
Description: For the TGFα shedding assay and the flow cytometry analysis, we used human full-length QRFPR-encoding plasmids. Specifically, GPR103 was N-terminally modified with an HA signal sequence followed by a FLAG epitope and then a flexible linker ([…]; the FLAG epitope is underlined) and inserted into the pCAGGS vector. Plasmid encoding GPR103 mutants were generated using Quickchange Site-Directed Mutagensis kit (Agilent).
The TGFα shedding assay was performed as described previously with minor modifications. Plasmid transfection was performed in a 6-well plate with a mixture of 500 ng (per well in a 6-well plate) AP-TGFα-encoding plasmid and 200 ng GPR103-encoding plasmid. After 1-day culture, the transfected cells were harvested by trypsinization, pelleted by centrifugation at 190 × g for 5 min, and washed once with 5 mM HEPES (pH 7.4)-containing Hank’s Balanced Salt Solution (HBSS). After centrifugation, the cells were resuspended in 8 mL of the HEPES-containing HBSS. The cell suspension was seeded in a 96-well culture plate (cell plate) at a volume of 90 μL (per well hereafter) and incubated in a 37 °C incubator with 5% CO2 for 30 min. […] After spinning the cell plates at 190 × g for 2 min, 80 μL of conditioned media was transferred to an empty 96-well plate (conditioned media (CM) plate). Then, 80 μL of AP reaction solution (10 mM p-nitrophenylphosphate (p-NPP), 120 mM Tris-HCl (pH 9.5), 40 mM NaCl, and 10 mM MgCl2) was dispensed into the cell plates and the CM plates. Absorbance at 405 nm of the plates was measured using a microplate reader (SpectraMax 340 PC384, Molecular Devices) before and after 1-h incubation at room temperature. Ligand-induced AP-TGFα release was calculated by subtracting spontaneous AP-TGFα release signal from ligand-induced AP-TGFα release signal. The AP-TGFα release signals were fitted to a four-parameter sigmoidal concentration–response curve, using the Prism 10 software (GraphPad Prism). For each replicate experiment, the pEC50 parameter (negative logarithmic values of EC50 values) of the individual GPR103 mutants were normalized to that of the wild-type GPR103 performed in parallel, and resulting ∆pEC50 values were used to denote ligand response activity of the mutants. […]
Exp. le vel: WT (1:5 0)Exp. le vel: WT (1:5 0)Exp. le vel: WT (1:5 0)Exp. le vel: WT (1:2 0)Exp. le vel: WT (1:2 0)Exp. le vel: WT (1:1 0) […]
L1 4N - t e r mA F2 5N - t e r mA I 2 6N - t e r mA Y 2 9N - t e r mA C 9 82 .5 7A T10 22 .6 1A Exp . l eve l: WT (1 :5)Exp . l evel : >WT (1 :1)Exp. le vel: WT (1:2 0)Exp. le vel: WT (1:2 0)Exp. le vel: WT (1:5 0)Exp . l eve l: WT (1 :1) […]
Exp. le vel: WT (1:1 0)Exp. le vel: WT (1:2 0) C 1 1 83 .2 5AExp. le vel: WT (1:5 0)Exp. le vel: WT (1:5 0)Exp. le vel: WT (1:2 0)Exp . l eve l: WT (1 :5) […]
Exp. le vel: WT (1:5 0)Exp. le vel: WT (1:1 0)Exp. le vel: WT (1:5 0) E203ECL2AExp . l evel : >WT (1 :1)Exp. le vel: WT (1:5 0)Exp. le vel: WT (1:5 0) […]
Exp . l eve l: WT (1 :1) F28Exp. le vel: WT (1:5 0) C 2 8 56 .4 7AExp. le vel: WT (1:2 0) WExp. le vel: WT (1:2 0) F28Exp. le vel: WT (1:5 0)Exp . l evel : >WT (1 :1) […]
Exp. le vel: WT (1:5 0)Exp. le vel: WT (1:5 0) C 3 2 77 .4 8AExp . l eve l: WT (1 :5)Exp . l evel : >WT (1 :1)Exp . l evel : >WT (1 :1) […]
Suppl eme nt ary Figure 1 | Mutational analysis of GPR103. […]
mutants. Data are presented as mean values ± SEM, normally n=3-5; dots), each performed in triplicate. b-d Cell-surface expression (b) and QRFP26-in-duced activation of GPR103 (c, d) were analyzed by the flow cytometry and the TGFα shedding assay, respectively. From the concentration–response curves (a), Emax (c) and ΔpEC50 (d) values relative to the wild type were calculated. Colors in the mutant bars indicate an expression level matching to that of titrated wild type. Statistical analyses were performed using the ordinary one-way ANOVA followed by Dunnett tests with the expression-matched […]

Emax (Exp. #1): 81.15 % WT
Emax (Exp. #2): 80.43 % WT
Emax (Exp. #3): 87.98 % WT
Emax (mean, read-out: Emax): 83.2%
EC50 (n = 3): 14.1 nM
Emax (n = 3, read-out: Emax): 86.7 ± 2%
Substance: TSGPLGNLAEELNGYSRKKGGFSFRF-NH2 [QRFP26]
